Data published in patent publication US7056506B2, “Methods for detecting and inhibiting angiogenesis” (The Regents of the University of California, priority 1998, dated 2006).

How the values were obtained:
[1] = test system: α5^+ HT29 cells; assay: Cell adhesion assay, adhesion to fibronectin; type: cell-based, human
From the text: (§1) HT29 integrin α5β1^+ cells, integrin α5β1^− colon carcinoma cells (Varner et al., Mol. Biol. Cell 6:725–740 (1995)), and chick embryo fibroblasts (CEF's) were maintained in DMEM high glucose supplemented with 10% fetal bovine serum (FBS) and gentamycin. Human umbilical vein endothelial cells (HUVEC's) were maintained in M199 medium containing sodium bicarbonate, HEPES, heparin, endothelial cell growth supplement, 20% FBS and gentamycin. Culture media and reagents were from Irvine Scientific (Irvine, Calif.).
(§2) The wells of 48 well culture dishes (Costar, Inc.) were coated with 1 μg/ml vitronectin, 2 μg/ml fibronectin (chick embryo fibroblasts and HUVEC's) or 10 μg/ml fibronectin (HT29-α5^+ cells) for 1 hr at 37° C., then blocked with 2% heat denatured BSA in PBS for 1 hr. Fifty thousand cells in 250 μl of adhesion buffer were added to triplicate wells containing 250 μl of a solution of 50 μg/ml of an anti-α5β1 function blocking antibody (NKI-SAM-1, JBS5 or IIA1), 50 μg/ml of an anti-α5β1 non-function blocking antibody (HA5 or VC5; Pharmingen, Inc.; San Diego Calif.), 10 μM cyclic peptides (Koivunen et al., J. Biol. Chem. 268:20205–20210 (1993); Koivunen et al., J. Cell Biol. 124:373380 (1994)), 0–10 μM SJ749 ((S)-2-{(2,4,6-trimethylphenyl)sulfonyl}amino-3{7-benzyloxycarbonyl-8-(2-pyridinylaminomethyl)-1-oxa-2,7-diazaspiro-{4,4}-non-2-en-3-yl}carbonylamino}propionic acid)), 50 μg/ml of LM609, an anti-αVβ3 function blocking antibody, 50 μg/ml P4C10, an anti-β1 function blocking antibody, 50 μg/ml of an anti-fibronectin cell binding domain monoclonal antibody or 50 μg/ml of an anti-fibronectin N-terminus monoclonal antibody in adhesion buffer (HEPES buffered Hanks balanced salt solution, HBSS, containing 1% BSA, 2 mM MgCl2, 2 mM CaCl2 and 0.2 mM MnCl2).
Cells were allowed to adhere to dishes for 20 min at 37° C. Nonadherent cells were removed by washing each well four times with 500 μl of warm adhesion buffer. […] Crystal violet was extracted by incubation for 15 min in 10% acetic acid and absorbance at 562 nm determined as an indicator of number of cells bound. […]

[2] = test system: Human umbilical vein endothelial cells (HUVEC's); assay: Cell adhesion assay, adhesion to fibronectin; type: cell-based
From the text: as §1, §2
(§3) Cells were allowed to adhere to dishes for 20 min at 37° C. Nonadherent cells were removed by washing each well four times with 500 μl of warm adhesion buffer. Adherent cells were then fixed for 15 min with 3.7% paraformaldehyde in PBS and stained with a 2% crystal violet solution. After extensive water washing to remove excess crystal violet, plates were dried overnight. Crystal violet was extracted by incubation for 15 min in 10% acetic acid and absorbance at 562 nm determined as an indicator of number of cells bound. Each experiment was performed in triplicate, with triplicate samples per condition.

[3] = test system: chick embryo fibroblasts (CEF's); assay: Cell adhesion assay, adhesion to fibronectin; type: cell-based
From the text: as §1, §2, §3

[4] = test system: HUVEC's; assay: Cell migration assay on fibronectin; type: cell-based, human
Experimental: The lower side of 8 μm pore transwell inserts (Costar, Inc.) were coated with 2 μg/ml of fibronectin, collagen (Collaborative Biomedical Products; Bedford Mass.) or no protein for 1 hr and were blocked with 2% BSA in PBS for 1 hr. The inserts then were placed into 24 well culture dishes containing 500 μl migration buffer in the lower chamber. Twenty-five thousand HUVEC's in 50 μl of migration buffer (HEPES buffered M199 medium containing 1% BSA, 2 mM MgCl2, 2 mM CaCl2 and 0.2 mM MnCl2) were added to the upper chamber of duplicate inserts containing 50 μl of a solution of 50 μg/ml of anti-α5β1 function blocking antibody (NKI-SAM-1, JBS5 or IIA1), 50 μg/ml of anti-α5β1 non-function blocking antibody (HA5 or VC5), or 50 μg/ml of LM609 (an anti-αVβ3 function blocking antibody) in migration buffer, or migration buffer alone.
Cells were allowed to migrate from the upper to the lower chamber for 4 hr at 37° C. Nonmigratory cells were removed from the upper surface by wiping the upper side with an absorbant tip, and cells that had migrated to the lower side of the transwell insert were fixed for 15 min with 3.7% paraformaldehyde in PBS, then stained with a 2% crystal violet solution. After extensive water washing to remove excess crystal violet, the number of cells that had migrated were counted in three representative high power (200×) fields per insert. […]

[5] = test system: bFGF-induced angiogenesis on the chick CAM; assay: In ovo chick CAM angiogenesis assay, bFGF stimulated; type: in vivo
From the text: (§4) Ten day old embryonated chicken eggs (McIntyre Poultry; Ramona Calif.) were candled to illuminate blood vessels under the shell and an area with a minimum of small blood vessels is identified. The CAM was dropped away from the eggshell in this area by grinding a small hole in the mineralized shell and applying pressure to the underlying inner shell membrane. This procedure caused an air pocket to shift from the wide end of the egg to the identified area and forcing a circular region of the CAM approximately 2 cm in diameter to drop away from the shell. A window was cut in the egg shell and a cortisone acetate pre-treated filter disc 5 mm in diameter that had been saturated in 1 μg/ml bFGF, VEGF, TNFα, IL-8 (Genzyme, Inc.; Cambridge Mass.) or saline was placed on the CAM. The window in the shell was sealed with adhesive tape and the egg was incubated for four days.
(§5) Anti-fibronectin antibodies (25 μg in 25 μl) also were applied topically to the CAM.
(§6) Fibronectin, vitronectin and fibronectin fragments (59 pmol in a final volume of 25 μl) were applied to stimulated or unstimulated CAM's. Peptide or small molecule antagonists of α5β1 (at a final serum concentration of 0–25 μM) also were injected intravenously into the chick circulation 24 hr later. CAM's were harvested on the fourth day of stimulation. Blood vessel branch points in the 5 mm filter disk area were counted at 30× magnification in a blinded fashion as a size-independent quantitative indicator of vascular sprouting in response to growth factors. Angiogenesis is characterized by the sprouting of new vessels in response to growth factors. Thus, counting of blood vessel branch points is a useful quantitative means of obtaining an angiogenic index (Brooks et al., In “Methods in Molecular Biology” (Humana Press 1999). At least ten embryos were used per treatment group. Each experiment was performed a minimum of three times.
(§7) Data was evaluated in terms of average number of blood vessel branch points per treatment group +/−standard error of measurement . Statistical analyses were performed using Student's t-test. Representative CAMS from each treatment group were photographed at 10X magnification. In some cases, CAM tissue excised from the egg was frozen in OCT (Baxter; McGraw Park Ill.) in liquid nitrogen, cut into 5 μm sections, air dried and processed for immunohistochemical analysis as described in Example I, except without fixation.

[6] = test system: VEGF-induced angiogenesis on the chick CAM; assay: In ovo chick CAM angiogenesis assay, VEGF stimulated; type: in vivo; settings: for effect of applied matrix protein on the angiogenic effect of VEGF: matrix protein applied to VEGF stimulated CAM's
From the text: as §4, §5, §6, §7

[7] = test system: HT29 colon carcinoma cells lacking α5β1 expression; assay: Chick CAM tumor assay, HT29; type: in vivo; settings: HT29 tumors on CAM
Experimental: The chick CAM tumor assay was performed by placing ten million tumor cells on the surface of a CAM, and culturing the cells for one week. The resulting tumors were excised and cut into 50 mg fragments. […] Forty-eight hours later, CAM's were excised from the egg and the number of blood vessels entering the tumors were counted (as vessel branch points).
Data was presented as mean blood vessel number per treatment group (+/− standard error of measurement). Each treatment group incorporated at least ten tumors per experiment. Representative tumors were photographed at 10× magnification. Tumors were excised from the egg and tumor weights were determined for each tumor Data was presented as mean tumor weight per treatment group (+/− standard error of measurement). Statistical analyses were performed using Student's t-test.
HT29 colon carcinoma cells lacking α5β1 expression were grown on the CAM's of 10-day old embryos. These tumor cells secrete several angiogenic growth factors, including VEGF, TGFα, TGFβ, TNFα, and IL-8 (Anzano et al., Cancer Res. 49:2898–2904 (1989); Varner et. al., supra, 1995; Ellis et al., J. Biol. Chem. 273:1052–1057 (1998)). Integrin α5β1 negative tumor cells were used to distinguish the potential anti-tumor effects from anti-vasculature effects of integrin α5β1 antagonists.

[8] = test system: growth factor-induced angiogenesis in chick embryos; assay: Chick CAM angiogenesis assay, systemic administration, growth factor not specified; type: in vivo; settings: chick embryo, read-out: amount inhibiting angiogenesis by 50% (converted)
From the text: (§8) Ten day old embryonated chicken eggs (McIntyre Poultry; Ramona Calif.) were candled to illuminate blood vessels under the shell and an area with a minimum of small blood vessels is identified. The CAM was dropped away from the eggshell in this area by grinding a small hole in the mineralized shell and applying pressure to the underlying inner shell membrane. This procedure caused an air pocket to shift from the wide end of the egg to the identified area and forcing a circular region of the CAM approximately 2 cm in diameter to drop away from the shell. […]
(§9) Fibronectin, vitronectin and fibronectin fragments (59 pmol in a final volume of 25 μl) were applied to stimulated or unstimulated CAM's. […] Blood vessel branch points in the 5 mm filter disk area were counted at 30× magnification in a blinded fashion as a size-independent quantitative indicator of vascular sprouting in response to growth factors. […] Thus, counting of blood vessel branch points is a useful quantitative means of obtaining an angiogenic index (Brooks et al., In “Methods in Molecular Biology” (Humana Press 1999). At least ten embryos were used per treatment group. Each experiment was performed a minimum of three times.
(§10) Data was evaluated in terms of average number of blood vessel branch points per treatment group +/−standard error of measurement . […]

[9] = test system: blood vessels of unstimulated CAM's; assay: In ovo chick CAM angiogenesis assay, unstimulated CAM's; type: in vivo; settings: absence of growth factor
From the text: as §8, §9, §10

[10] = matrix protein applied to bFGF stimulated CAM's

Molecule	effect on adhesion to fibronectin [1]	effect on adhesion to fibronectin [2]	effect on adhesion to fibronectin [3]	effect on endothelial cell migration on fibronectin [4]	inhibition of bFGF-induced angiogenesis (blood vessel branch points) ([5]; bFGF stimulated CAM)	effect on VEGF angiogenesis ([6]; VEGF stimulated CAM)	effect on tumor size [7]	tumors smaller than control treated tumors [7]	IC50 [8]	enhancement of growth factor stimulated angiogenesis [5, 10]	effect of applied matrix protein on the angiogenic effect of VEGF [6]	effect on blood vessels / angiogenesis of unstimulated CAM's [9]	effect of applied matrix protein on bFGF stimulated angiogenesis [5, 10]
CRRETAWAC	significantly inhibited	significantly inhibited	significantly inhibited	interfered	90+/−6%	failed to block	induced tumor regression	31%	60 nM				
fibronectin: intact human fibronectin										at least 46+/−11%	did not potentiate	neither fibronectin nor vitronectin promoted angiogenesis	
vitronectin: vitronectin, extracellular matrix protein applied to CAM's (protein) DQESCKGRCTEGFNVDKKCQCDELCSYYQSCCTDYTAECKPQVTRGDVFTMPEDEYTVYDDGEEKNNATVHEQVGGPSLTSDLQAQSKGNPEQTPVLKPEEEAPAPEVGASKPEGIDSRPETLHPGRPQPPAEEELCSGKPFDAFTDLKNGSLFAFRGQYCYELDEKAVRPGYPKLIRDVWGIEGPIDAAFTRINCQGKTYLFKGSQYWRFEDGVLDPDYPRNISDGFDGIPDNVDAALALPAHSYSGRERVYFFKGKQYWEYQFQHQPSQEECEGSSLSAVFEHFAMMQRDSWEDIFELLFWGRTSAGTRQPQFISRDWHGVPGQVDAAMAGRIYISGMAPRPSLAKKQRFRHRNRKGYRSQRGHSRGRNQNSRRPSRATWLSLFSSEESNLGANNYDDYRMDWLVPATCEPIQSVFFFSGDKYYRVNLRTRRVDTVDPPYPRSIAQYWLGCPAPGHL											did not potentiate	neither fibronectin nor vitronectin promoted angiogenesis	no effect
